# Assay results from patent US12396992B2, “Organic compounds” (INTRA-CELLULAR THERAPIES, INC., priority 2019, dated 2025).
# Entries after “also recorded” stand apart in the source; their conditions may differ.
# Legend:
# [1] = test system: BV2 cells; experiment: ADP-induced chemotaxis of BV2 cells in Boyden chamber; format: cell-based, mouse; settings: 100 μM ADP, 4 hrs
# Method: Chemotaxis towards 100 μM ADP was measured in a Boyden chamber system for 4 hrs against a vehicle control. BV2 cells were added to the upper chamber of a 5 μm pore Boyden chamber with 100 μM ADP or vehicle in the lower chamber and incubated at 37′C with 5% CO2 for 4 hours. The curve was fit to a 4-parameter logarithmic equation with the following constraints: top >80% and bottom <20%. […] As shown in the left panel of FIG. 7A, raw fluorescence counts (relative fluorescence units or RFU), representing the cell count in the lower chamber, were used to calculate control conditions. The Vehicle condition represents the minimum migration, in which there was no ADP present. The maximum migration was shown as the 100 μM ADP condition.
# The measured potency correlates with documented IC50 values.
# [2] = test system: mouse striatum; experiment: LPS-induced inflammatory gene expression in mouse striatum (Q-PCR); format: in vivo; settings: initial results
# [3] = test system: primary cultured microglia; experiment: VASP phosphorylation in primary cultured rat microglia; format: cell-based; settings: 1 μM
# Method: The above results were replicated in primary cultured microglia isolated from P2 rat whole brain (FIG. 10). Microglia were grown in culture for 12 days in serum-free media containing TGFb2, IL34, and cholesterol. The cells maintained properties in culture consistent with quiescent microglial-like cells, staining positive for Iba1 and maintaining a branched morphology.
# [4] = test system: BV2 cells; experiment: cAMP (ELISA) and P-VASP S157 (Western blot) in BV2 cells with ADP; format: cell-based, mouse; settings: for P-VASP level at baseline / cAMP level at baseline: no ADP stimulation
# Method: Cell lysates on a Western were blotted with an antibody to phosphorylated VASP at S157, and the intensity of the resulting bands were measured (as raw signal). […] There was no effect of PDE1 inhibition at baseline, consistent with the hypothesis that PDE1 is important under conditions of stimulation. […] As with cAMP, PDE1 activity (sensitive to ITI-214) appears to contribute about 50% to the total PDE activity (sensitive to IBMX) under conditions of stimulation while having no contribution at baseline. The dose dependent nature of the increase in cAMP is illustrated in FIG. 9.
# [5] = test system: mouse striatum; experiment: LPS-induced inflammatory gene expression in mouse striatum (Q-PCR); format: in vivo
# Method: (§1) RTqPCR: RNA from BV2 cells purified using RNeasyKit (Qiagen) and from mouse tissue using TRIzol (Ambion). TaqMan primer-probe assays from Thermo Fisher. mRNA levels for all conditions are normalized to GAPDH and to vehicle control (ΔΔCt). Data are analyzed statistically using one-way ANOVA with the Bonferroni post-test for multiple comparisons.
# Data from yet another experiment measuring the effect of PDE1 inhibition on inflammatory gene expression in mouse striatum is depicted in FIG. 6. […] Striatal tissue is analyzed for mRNA levels of TNF, IL1β, Ccl2, and IL6. Expression levels are shown as change in Q-PCR signal from vehicle (ΔΔCt) and compared using an ANOVA. * p<0.05, **p<0.01, ***p<0.001.
# The Applicants measure mRNA levels of four common inflammatory markers (TNF, IL1β, Ccl2, and IL6) using quantitative PCR (FIG. 7).
# [6] = test system: CT26 colorectal carcinoma cells; experiment: CT26 colorectal carcinoma engrafted subcutaneously in mice; format: in vivo, mouse; settings: for number of macrophages (CD45 positive) in the tumor microenvironment: 50 mg/kg, i.p., once daily
# Method: Mice were engrafted subcutaneously with CT26 colorectal carcinoma cells. Control mice were administered 150 μg IgG (Isotype).
# [7] = test system: BV2 cells; experiment: LPS-induced TNFα release from BV2 cells (ELISA); format: cell-based, mouse; settings: 50 ng/ml LPS stimulation, FIG. 4
# Method: TNFα release: TNFα levels are measured in BV2 conditioned media and normalized to cell protein levels. Inhibition of LPS-induced TNFα release from BV2 cells is depicted in FIG. 4.
# (§2) The test compound is added first, the LPS is added one hour later, and the cells and/or media are harvested at five hours from commencement of the experiment.
# TNFα ELISA: Thermo Fisher mouse TNFα colorimetric, sandwich ELISA kit. Interpolate values from standard curve. Dose response is fit to a 4-parameter logistic curve.
# [8] = test system: BV2 cells; experiment: Quantitative PCR of inflammatory cytokine mRNA in LPS-stimulated BV2 cells; format: cell-based, mouse; settings: for LPS-induced expression of Ccl2 / LPS-induced expression of IL1β / LPS-induced expression of TNFα: FIG. 3a; for Chemokine (C—C) motif Ligand 2 expression / Interleukin 1 beta expression / Tumor necrosis factor expression: BV2 + LPS, Q-PCR, initial results
# Method: Levels of IL1 are measured using quantitative PCR of IL1β mRNA. IL1β is considered a marker of inflammation. Results are depicted in FIG. 2 (RQ: relative quantification of changes in gene expression in treated versus control samples; ***p<0.01 vs control, √p<0.01 vs LPS alone; ANOVA with Newman-Keuls post-hoc test).
# BV2 cells are pretreated with compound, ITI-214 or rolipram, a PDE4 inhibitor, then stimulated with 50 ng/ml LPS for 4 hours. Expression levels of TNF, IL1β, Ccl2, and IL6 are measured. Normalized mRNA levels are shown as change from vehicle (ΔΔCt) and compared using a one-way ANOVA. […] The mRNA transcripts for TNF, IL1β, and Ccl2—three of the four cytokines studied in vivo—were elevated in BV2 cells treated with 50 ng/ml LPS.
# as §2
# Cells: BV2 mouse microglial cell line (ICLC, Italy) grown in 2% or 10% heat-inactivated FBS.
# as §1
# [9] = test system: BV2 cells; experiment: as above; format: cell-based, mouse; settings: LPS 10 microgram/ml, Compound 214 10 microgram/ml, FIG. 2
# [10] = test system: HL60 cells; experiment: cGMP levels in PMA-differentiated HL60 cells with ANP and ionomycin (competitive ELISA); format: cell-based, human
# Method: We have shown that there is a synergistic effect between ANP and PDE1 inhibition. An immortalized human pro-myeloid cell line (HL60 from ATCC) is grown, differentiated and harvested as described in Bender, A T, and Beavo, J A, 2006, PNAS 103, 460-465. The cells are grown in HEPES buffered RPMI 1640 medium with penicillin, streptomycin, and 10% fetal bovine serum. Phorbol-12-myristate-13-acetate (PMA), at 100 nM for 3 days, is used to differentiate the HL60 cells into macrophage-like cells. Following differentiation, the cells are incubated with a PDE1 inhibitor or vehicle (DMSO) beginning at time 0. At 40 minutes, 5 μM ionomycin (a calcium ionophore) is added. At 50 minutes, 100 nM ANP was added. At 60 minutes, the cells are harvested. Total cGMP levels are measured using a competitive ELISA (Bender and Beavo, 2006).
# [drawing 33] is tested for its effect on cGMP levels in this system. […] In addition, the cGMP level attained by co-treatment with ANP and the PDE1 inhibitor is much greater than that obtained by co-treatment with ANP and a mixed PDE1/PDE5 inhibitor, SCH 51866 (used at 5 μM). In this experiment, the calcium ionophore ionomycin (used at 5 μM) is used to raise the intracellular calcium level and to counteract the cGMP rise induced by ANP.
# [11] = target: T1, bovine brain PDE1 (Bos taurus, UniProt Q01061); experiment: IMAP phosphodiesterase assay, PDE1; format: biochemical
# T1 construct: IC50; other: bovine brain PDE1; Ki; other: bovine brain PDE1 assay
# Excerpt: Briefly, the IMAP reagent binds with high affinity to the free 5′-phosphate that is found in GMP-fluorescein and not in cGMP-fluorescein. The resulting GMP-fluorescein-IMAP complex is large relative to cGMP-fluorescein. Small fluorophores that are bound up in a large, slowly tumbling, complex can be distinguished from unbound fluorophores, because the photons emitted as they fluoresce retain the same polarity as the photons used to excite the fluorescence.
# The PDE1 enzyme is reconstituted with 50% glycerol to 2.5 U/ml. […] The compounds are mixed and pre-incubated with the enzyme for 10 min at room temperature.
# The reaction is incubated in dark at room temperature for 15 min.
# [12] = target: P2Y12 (Homo sapiens, UniProt Q9H244); settings: P2Y12 inhibitors; read-out: documented IC50; cited from earlier work
# [13] = 10 mg/kg i.p., 500 μg/kg LPS s.c., 2 hours
# [14] = 10 mg/kg i.p., 500 μg/kg LPS s.c., 2 hours, does not reach significance
# [15] = Striatum Mouse + LPS, Q-PCR, initial results
# [16] = 10 μM, 50 ng/ml LPS for 4 hours, FIG. 3b
# T1 sequence (Q01061 whole entry): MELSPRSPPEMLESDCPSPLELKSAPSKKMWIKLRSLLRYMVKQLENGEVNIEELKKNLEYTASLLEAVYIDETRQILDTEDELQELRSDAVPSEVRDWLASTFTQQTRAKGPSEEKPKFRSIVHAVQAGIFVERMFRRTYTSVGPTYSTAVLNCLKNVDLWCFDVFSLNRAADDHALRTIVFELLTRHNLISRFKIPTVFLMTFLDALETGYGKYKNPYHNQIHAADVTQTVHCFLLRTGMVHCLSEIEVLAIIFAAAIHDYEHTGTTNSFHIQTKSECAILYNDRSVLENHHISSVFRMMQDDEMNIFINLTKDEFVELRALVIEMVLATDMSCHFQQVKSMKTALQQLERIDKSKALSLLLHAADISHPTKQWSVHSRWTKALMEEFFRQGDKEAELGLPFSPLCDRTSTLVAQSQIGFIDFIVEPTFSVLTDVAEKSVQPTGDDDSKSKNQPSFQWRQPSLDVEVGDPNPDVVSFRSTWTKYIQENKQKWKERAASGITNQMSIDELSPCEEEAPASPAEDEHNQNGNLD
# P2Y12, sequence (Q9H244 whole entry, species assumed): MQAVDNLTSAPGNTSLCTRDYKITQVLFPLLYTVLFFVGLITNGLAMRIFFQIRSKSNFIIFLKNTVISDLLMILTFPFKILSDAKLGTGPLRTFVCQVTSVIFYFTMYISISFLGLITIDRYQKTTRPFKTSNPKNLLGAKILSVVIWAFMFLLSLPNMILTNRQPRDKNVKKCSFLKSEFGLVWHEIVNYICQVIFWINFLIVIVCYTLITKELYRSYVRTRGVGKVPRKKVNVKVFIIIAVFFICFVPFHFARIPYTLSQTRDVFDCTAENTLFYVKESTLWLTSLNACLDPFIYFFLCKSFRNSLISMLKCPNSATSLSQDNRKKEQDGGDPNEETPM
smiles,measurement,setting,value
"CSCCNc1nc(SCCC(F)(F)F)nc2c1ncn2[C@@H]1O[C@H](COP(=O)(O)OP(=O)(O)C(Cl)(Cl)P(=O)(O)O)[C@@H](O)[C@H]1O [AR-C 69931, reference compound]",chemotaxis of BV2 cells toward ADP,[1],inhibited ADP induced migration
CN1C(=O)c2c(nn(Cc3ccc(-c4cccc(F)n4)cc3)c2Nc2ccccc2)N2C1=N[C@@H]1CCC[C@@H]12 [Compound 214],Oncostatin M expression,[2],Down
same,VASP phosphorylation under basal conditions,[3],little effect
same,increase in VASP phosphorylation after ADP,[3]; 100 μM ADP for 5 mins,significantly enhanced
same,ADP-induced elevation in cAMP,"[4]; 30 min pretreatment, ADP for 5 minutes, ELISA",significantly augmented
same,ADP-induced P-VASP at serine 157,"[4]; 30 min pretreatment, ADP for 5 minutes, Western blot",significantly augmented
same,P-VASP level at baseline,[4],no effect
same,cAMP level at baseline,[4],no effect
same,striatal mRNA expression of Ccl2,[5]; [13],attenuates
same,striatal mRNA expression of TNF,[5]; [13],attenuates
same,LPS-induced inflammatory gene expression changes in mice,"[5]; 10 mg/kg i.p., 500 μg/kg LPS s.c., 2 hours, FIG. 6",prevents
same,striatal mRNA level of IL1-beta,[5]; [14],trended to lower levels
same,striatal mRNA level of IL6,[5]; [14],trended to lower levels
same,Chemokine (C—C) motif Ligand 2 expression,[5]; [15],Down
same,percentage of responders (tumor volume <500 mm3),"[6]; 1 mg, 5 days a week starting at day 7, alone",increase
same,number of macrophages (CD45 positive) in the tumor microenvironment,[6]; alone,significantly reduced
same,number of macrophages (CD45 positive) in the tumor microenvironment,[6]; in combination with an anti-PD1 antibody,significantly reduced
same,percentage of responders (tumor volume <500 mm3),"[6]; in combination with 150 μg Anti-PD-1 (RMP1-14) on days 7, 11, 14, 17",increase
same,LPS-induced TNFα release,[7],dose-dependent inhibition
same,Ccl2 mRNA signal,[8]; [16],significantly decreased
same,IL1β mRNA signal,[8]; [16],trended downward
same,TNF mRNA signal,[8]; [16],significantly decreased
same,LPS-induced expression of Ccl2,[8]; 10 μM,significantly reduces
same,LPS-induced expression of IL1β,[8]; 10 μM,significantly reduces
same,LPS-induced expression of TNFα,[8]; 10 μM,significantly reduces
same,Chemokine (C—C) motif Ligand 2 expression,[8],Down
same,Interleukin 1 beta expression,[8],Down
same,Tumor necrosis factor expression,[8],Down
same,chemotaxis of BV2 cells toward ADP,[1],inhibits
same,chemotaxis of BV2 cells toward ADP,[1]; listed as compound 214,reduced chemotaxis of BV2 cells toward 100 μM ADP in a dose-dependent manner
same,LPS-induced increase in expression of IL1β mRNA,[9],significantly blunts; also recorded: suppresses
"COc1ccc(C2CNC(=O)C2)cc1OC1CCCC1 (centres unmarked) [rolipram, reference compound]",Oncostatin M expression,[2],Down
same,Chemokine (C—C) motif Ligand 2 expression,[5]; [15],Down
same,Interleukin 1 beta expression,[5]; [15],UP-UP
same,Interleukin 6 expression,[5]; [15],UP-UP
same,Tumor necrosis factor expression,[5]; [15],Down
same,LPS-induced expression of Ccl2,[8]; 10 μM,reducing
same,LPS-induced expression of IL1β,[8]; 10 μM,increasing
same,LPS-induced expression of TNFα,[8]; 10 μM,reducing
same,Chemokine (C—C) motif Ligand 2 expression,[8],Down
same,Interleukin 1 beta expression,[8],UP UP
same,Tumor necrosis factor expression,[8],Down
"CC(C)Cn1c(=O)n(C)c(=O)c2[nH]cnc21 [IBMX, reference compound]",P-VASP level at baseline,[4],did elevate
same,cAMP level at baseline,[4],did elevate
"CN1C(=O)c2c(nn(Cc3ccc(C(F)(F)F)cc3)c2Nc2ccccc2)N2C1=N[C@@H]1CCC[C@@H]12 [Example 20 of U.S. Pat. No. 8,273,750, (6aR,9aS)-3-(phenylamino)-5,6a,7,8,9,9a-hexahydro-5-methyl-2-(4-(trifluoromethyl)-benzyl)-cyclopent[4,5]imidazo[1,2-a]pyrazolo[4,3-e]pyrimidin-4(2H)-one]",cGMP level induced in HL60 cells,"[10]; 100 nM ANP + 100 nM PDE1 inhibitor, compared with ANP alone or inhibitor alone",greater than that induced by either the ANP alone or the PDE1 inhibitor alone
same,effect of ionomycin on cGMP,[10]; 5 μM ionomycin combined with ANP and the PDE1 inhibitor,only a weak cGMP lowering effect
same,cGMP level attained by co-treatment with ANP,[10]; compared with co-treatment with ANP and SCH 51866 (5 μM),much greater
same,Ki,[11],0.68 nM
"CCCSc1nc(N)c2ncn([C@@H]3O[C@H](COP(=O)(O)OP(=O)(O)C(F)(F)P(=O)(O)O)[C@@H](O)[C@H]3O)c2n1 [AR-C 66096, reference compound]",IC50,[12],6.9 nM
same,chemotaxis of BV2 cells toward ADP,[1],inhibited ADP induced migration
